Measurements reported in patent publication US9255100B2 (BAYER INTELLECTUAL PROPERTY GMBH, priority 2010, dated 2016).

Target: T1, N-terminally GST-tagged human full length recombinant Mps-1 kinase (Homo sapiens, UniProt P33981)
T1 construct: N-terminally GST-tagged human full length recombinant Mps-1 kinase; purchased Invitrogen, Karslruhe, Germany PV4071
T1 sequence (P33981 1-857): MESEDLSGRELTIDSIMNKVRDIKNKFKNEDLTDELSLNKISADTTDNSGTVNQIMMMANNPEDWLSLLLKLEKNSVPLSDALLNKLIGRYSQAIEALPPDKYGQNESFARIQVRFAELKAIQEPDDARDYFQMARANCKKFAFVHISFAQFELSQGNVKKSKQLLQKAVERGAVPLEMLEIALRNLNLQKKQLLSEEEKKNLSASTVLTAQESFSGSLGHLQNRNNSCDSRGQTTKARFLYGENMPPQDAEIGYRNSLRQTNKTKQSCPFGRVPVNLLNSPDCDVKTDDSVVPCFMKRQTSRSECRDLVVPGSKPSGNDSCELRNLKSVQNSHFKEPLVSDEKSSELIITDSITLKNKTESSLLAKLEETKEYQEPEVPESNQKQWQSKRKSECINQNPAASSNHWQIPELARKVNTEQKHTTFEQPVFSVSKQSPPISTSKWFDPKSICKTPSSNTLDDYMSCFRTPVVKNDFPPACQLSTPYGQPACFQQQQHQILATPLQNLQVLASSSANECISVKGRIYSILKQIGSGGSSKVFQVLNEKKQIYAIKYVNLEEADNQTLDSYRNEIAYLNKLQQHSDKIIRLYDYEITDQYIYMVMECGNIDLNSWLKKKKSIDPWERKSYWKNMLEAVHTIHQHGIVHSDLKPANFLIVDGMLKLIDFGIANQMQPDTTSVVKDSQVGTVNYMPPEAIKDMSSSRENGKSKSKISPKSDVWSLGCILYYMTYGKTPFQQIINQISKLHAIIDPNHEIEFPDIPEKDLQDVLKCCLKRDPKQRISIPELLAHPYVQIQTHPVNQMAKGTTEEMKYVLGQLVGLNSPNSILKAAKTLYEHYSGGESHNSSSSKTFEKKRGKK
Experiment: Mps-1 kinase assay (TR-FRET)
Assay type: biochemical
Conditions: Mps1 IC50 [nM], 10 μM ATP, 1 μM peptide substrate, 60 min at 22° C.
In short: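 Next, Eu-labelled anti-phospho(Ser/Thr) antibody and SA-XLent bind for 1 h at 22° C. Finally, energy transfer quantifies phosphorylated product.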

IC50 [nM]	SMILES
0.2	COc1ccc(Oc2cc(NCCC(F)(F)F)c3ncc(-c4ccc(C(=O)NC5CC5)c(C)c4)n3n2)cc1 [Example 471, N-cyclopropyl-4-{6-(4-methoxyphenoxy)-8-[(3,3,3-trifluoropropyl)amino]imidazo[1,2-b]pyridazin-3-yl}-2-methylbenzamide]
0.2	Cc1cc(-c2cnc3c(NCCC(F)(F)F)cc(Oc4ccc(F)cc4)nn23)ccc1C(=O)NC1CC1 [Example 472, N-cyclopropyl-4-{6-(4-fluorophenoxy)-8-[(3,3,3-trifluoropropyl)amino]imidazo[1,2-b]pyridazin-3-yl}-2-methyl-benzamide]
0.4	Cc1cc(-c2cnc3c(NCCC(F)(F)F)cc(Oc4ccccc4F)nn23)ccc1C(=O)NC1CC1 [Example 473, N-cyclopropyl-4-{6-(2-fluorophenoxy)-8-[(3,3,3-trifluoropropyl)amino]imidazo[1,2-b]pyridazin-3-yl}-2-methyl-benzamide]
0.3	Cc1ccccc1Oc1cc(NCCC(F)(F)F)c2ncc(-c3ccc(C(=O)NC4CC4)c(C)c3)n2n1 [Example 474, N-cyclopropyl-2-methyl-4-{6-(2-methylphenoxy)-8-[(3,3,3-trifluoro-propyl)amino]imidazo [1,2-b]pyridazin-3-yl} benzamide]
0.2	COc1ccc(Oc2cc(NCCC(F)(F)F)c3ncc(-c4ccc(C(=O)NC5CC5)c(C)c4)n3n2)cc1F [Example 475, N-cyclopropyl-4-{6-(3-fluoro-4-methoxy-phenoxy)-8-[(3,3,3-tri-fluoropropyl)amino]imidazo[1,2-b]pyridazin-3-yl}-2-methylbenzamide]
10.3	CC(=O)Nc1ccncc1Oc1cc(NCCC(F)(F)F)c2ncc(-c3ccc(C(=O)NC4CC4)c(C)c3)n2n1 [Example 476, 4-(6-{[4-(acetylamino)pyridin-3-yl]oxy}-8-[(3,3,3-trifluoropropyl)amino]imidazo[1,2-b]pyridazin-3-yl)-N-cyclo-propyl-2-methyl-benzamide]
0.3	Cc1cc(-c2cnc3c(NCCC(F)(F)F)cc(Oc4cccc(F)c4N)nn23)ccc1C(=O)NC1CC1 [Example 477, 4-{6-(2-amino-3-fluoro-phenoxy)-8-[(3,3,3-tri-fluoropropyl)amino]imidazo[1,2-b]pyridazin-3-yl}-N-cyclopropyl-2-methylbenzamide]
0.3	Cc1cc(-c2cnc3c(NCCC(F)(F)F)cc(Nc4c(O)cccc4F)nn23)ccc1C(=O)NC1CC1 [Example 478, N-cyclopropyl-4-{6-[(2-fluoro-6-hydroxyphenyl)amino]-8-[(3,3,3-tri-fluoropropyl)amino]imidazo[1,2-b]pyridazin-3-yl}-2-methylbenzamide]
0.2	Cc1ccc(Oc2cc(NCCC(F)(F)F)c3ncc(-c4ccc(C(=O)NC5CC5)c(C)c4)n3n2)cc1 [Example 479, N-cyclopropyl-2-methyl-4-{6-(4-methylphenoxy)-8-[(3,3,3-trifluoro-propyl)amino]imidazo [1,2-b]pyridazin-3-yl} benzamide]
3.1	Cc1cc(-c2cnc3c(NCCC(F)(F)F)cc(Nc4ccncc4O)nn23)ccc1C(=O)NC1CC1 [Example 481, N-cyclopropyl-4-{6-[(3-hydroxypyridin-4-yl)amino]-8-[(3,3,3-tri-fluoropropyl)amino]imidazo[1,2-b]pyridazin-3-yl}-2-methylbenzamide]
0.6	C=C(c1ccccc1)c1cc(NCCC(F)(F)F)c2ncc(-c3ccc(C(=O)NC4CC4)c(C)c3)n2n1 [Example 482, N-cyclopropyl-2-methyl-4-{6-(1-phenylethenyl)-8-[(3,3,3-trifluoropropyl)amino]imidazo[1,2-b]pyridazin-3-yl}benzamide]
0.1	COc1ccc(Cc2cc(NCCC(F)(F)F)c3ncc(-c4ccc(C(=O)NC5CC5)c(C)c4)n3n2)cc1F [Example 483, N-cyclopropyl-4-{6-(3-fluoro-4-methoxybenzyl)-8-[(3,3,3-tri-fluoropropyl)amino]imidazo [1,2-b]pyridazin-3-yl}-2-methylbenzamide]
0.3	Cc1ccc(Cc2cc(NCCC(F)(F)F)c3ncc(-c4ccc(C(=O)NC5CC5)c(C)c4)n3n2)cc1F [Example 484, N-cyclopropyl-4-{6-(3-fluoro-4-methylbenzyl)-8-[(3,3,3-tri-fluoropropyl)amino]imidazo [1,2-b]pyridazin-3-yl}-2-methylbenzamide]
0.4	Cc1cc(-c2cnc3c(NCCC(F)(F)F)cc(Cc4cccc(Br)c4)nn23)ccc1C(=O)NC1CC1 [Example 485, 4-{6-(3-bromobenzyl)-8-[(3,3,3-trifluoropropyl)amino]imidazo [1,2-b]pyridazin-3-yl}-N-cyclo-propyl-2-methylbenzamide]
0.1	Cc1cc(-c2cnc3c(NCC(O)C(F)(F)F)cc(Oc4cccc(F)c4)nn23)ccc1C(=O)NC1CC1 (centres unmarked) [Example 486, N-cyclopropyl-4-{6-(3-fluorophenoxy)-8-[(3,3,3-trifluoro-2-hydroxypropyl)amino]imidazo[1,2-b]pyridazin-3-yl}-2-methylbenzamide]
0.1	Cc1cc(-c2cnc3c(NCCN(C)C)cc(Oc4cccc(F)c4)nn23)ccc1C(=O)NC1CC1 [Example 487, N-cyclopropyl-4-[8-{[2-(dimethylamino)ethyl]amino}-6-(3-fluorophenoxy)imidazo [1,2-b]pyridazin-3-yl]-2-methylbenzamide]
0.1	Cc1cc(-c2cnc3c(NCc4ccn(C)n4)cc(Oc4cccc(F)c4)nn23)ccc1C(=O)NC1CC1 [Example 488, N-cyclopropyl-4-[6-(3-fluoro-phenoxy)-8-{[(1-methyl-1H-pyrazol-3-yl)methyl]amino}imidazo[1,2-b]pyridazin-3-yl]-2-methylbenzamide]
0.2	Cc1cc(-c2cnc3c(NCc4cc[nH]n4)cc(Oc4cccc(F)c4)nn23)ccc1C(=O)NC1CC1 [Example 489, N-cyclopropyl-4-{6-(3-fluoro-phenoxy)-8-[(1H-pyrazol-3-ylmethyl)amino]imidazo [1,2-b]pyridazin-3-yl}-2-methylbenzamide]
1.5	Cc1cc(-c2cnc3c(NCC4(CO)COC4)cc(Oc4cccc(F)c4)nn23)ccc1C(=O)NC1CC1 [Example 490, N-cyclopropyl-4-[6-(3-fluoro-phenoxy)-8-({[3-(hydroxymethyl)oxetan-3-yl]methyl}amino)imidazo[1,2-b]pyridazin-3-yl]-2-methylbenzamide]
0.1	Cc1cc(-c2cnc3c(NCC(O)CO)cc(Oc4cccc(F)c4)nn23)ccc1C(=O)NC1CC1 (centres unmarked) [Example 491, N-cyclopropyl-4-{8-[(2,3-dihydroxypropyl)amino]-6-(3-fluorophenoxy)imidazo [1,2-b]pyridazin-3-yl}-2-methylbenzamide]
0.3	Cc1cc(-c2cnc3c(NCCC(=O)N(C)C)cc(Oc4cccc(F)c4)nn23)ccc1C(=O)NC1CC1 [Example 493, N-cyclopropyl-4-[8-{[3-(dimethyl-amino)-3-oxopropyl]amino}-6-(3-fluorophenoxy)imidazo[1,2-b]pyridazin-3-yl]-2-methyl-benzamide]
0.3	Cc1cc(-c2cnc3c(NCC4CCC(F)(F)CC4)cc(Oc4cccc(F)c4)nn23)ccc1C(=O)NC1CC1 [Example 494, N-cyclopropyl-4-[8-{[(4,4-difluorocyclohexyl)methyl]amino}-6-(3-fluorophenoxy)imidazo[1,2-b]pyridazin-3-yl]-2-methylbenzamide]
0.1	Cc1cc(-c2cnc3c(NCC4COC4)cc(Oc4cccc(F)c4)nn23)ccc1C(=O)NC1CC1 [Example 495, N-cyclopropyl-4-{6-(3-fluoro-phenoxy)-8-[(oxetan-3-ylmethyl)amino]imidazo[1,2-b]pyridazin-3-yl}-2-methylbenzamide]
8.9	Cc1cc(-c2cnc3c(NCc4nnn[nH]4)cc(Oc4cccc(F)c4)nn23)ccc1C(=O)NC1CC1 [Example 496, N-cyclopropyl-4-{6-(3-fluoro-phenoxy)-8-[(1H-tetrazol-5-ylmethyl)amino]imidazo[1,2-b]pyridazin-3-yl}-2-methylbenzamide]
0.2	Cc1cc(-c2cnc3c(NCC(C)(C)N(C)C)cc(Oc4cccc(F)c4)nn23)ccc1C(=O)NC1CC1 [Example 497, N-cyclopropyl-4-[8-{[2-(dimethyl-amino)-2-methylpropyl]amino}-6-(3-fluorophenoxy)imidazo [1,2-b]pyridazin-3-yl]-2-methyl-benzamide]
0.3	Cc1cc(-c2cnc3c(NCC(C)(C)N4CCOCC4)cc(Oc4cccc(F)c4)nn23)ccc1C(=O)NC1CC1 [Example 498, N-cyclopropyl-4-[6-(3-fluoro-phenoxy)-8-{[2-methyl-2-(morpholin-4-yl)propyl]amino}imidazo[1,2-b]pyridazin-3-yl]-2-methylbenzamide]
